Source: patent publication US20250041306A1, “TARGETED PROTEASE DEGRADATION (TED) PLATFORM” (EUBULUS BIOTHERAPEUTICS INC., priority 2021, published 2025)
Read-outs that look alike come from different tables or passages of the source. Numbered stars: 1 amine (or outer) side, 2 acyl side, 3 side chain; on linkers, the order of the positions; unused ones are H or OH. Bridge positions count the residues as written; N and C are the ends. Square brackets hold non-standard residues; d marks the D form. Peptide text beside a SMILES is read from it. I, II: the chains in the order shown. * marks the point of attachment. X1 = NC(=O)c1ccccc1Nc1nc(Nc2ccc(N3CCN(C(=O)NC4CCC(N(CCC#Cc5ccc6c(c5)CN(C5CCC(=O)NC5=O)C6=O)C(=O)OCCS*)CC4)CC3)cc2)ncc1Cl; X2 = NC(=O)c1ccccc1Nc1nc(Nc2ccc(N3CCN(C(=O)NC4CCC(N(CCC#Cc5ccc6c(c5)CN(C5CCC(=O)NC5=O)C6=O)*)CC4)CC3)cc2)ncc1Cl; Succinimide(1-C2H4CO,3-yl) = O=C1CC([*:1])C(=O)N1CCC(=O)[*:2]; PABC = O=C(OCc1ccc(N[*:1])cc1)[*:2]; Thr(ol) = C[C@@H](O)[C@H](N)CO

How the values were obtained:
Format in all cases: cell-based
[1] = tested on: Human Small Cell Lung Cancer H69; assay: Cell proliferation experiment (Alarm blue), H69
Procedure: (§1) The cells were cultured in conventional ways, and the cells should be passed for at least 2 generations before plating. Cells at the logarithmic growth phase were collected, prepared into single cell suspensions and counted. The concentration of cells was adjusted to desired concentration, and cells were inoculated into a 96-well cell culture plate at 100 μl per well. 100 μL of complete medium of the test compound were added to each well, 2 replicate wells for each concentration were set up, and diluted with a 5-fold gradient, and continued to culture for 72 h. All cells were subjected to EC50 test for corresponding samples.
(§2) The fluorescence intensity of each well was detected using the Alarm blue method, and IC50 was calculated.
(§3) IC50 was calculated according to the following formula:
(§4) [formula] • wherein Min, Max and Slope represent the minimum, maximum and slope respectively.

[2] = tested on: Human Small Cell Lung Cancer NCI-H82; assay: Cell proliferation experiment (Alarm blue), H82
Procedure: as §1, §2, §3, §4

[3] = tested on: Human Colon Cancer cells Colo205; assay: Cell proliferation experiment (Alarm blue), Colo205
Procedure: as §1, §2, §3, §4

Human Colon Cancer HT-29 = assay: Cell proliferation experiment (Alarm blue), HT-29
Procedure: as §1, §2, §3, §4

[4] = tested on: human gastric carcinoma cells N87; assay: Cell proliferation experiment (Alarm blue), N87
Procedure: as §1, §2, §3, §4

[5] = H69 cells, 72 h culture, read-out: Anti cell proliferative activity EC50, H69
[6] = H82 cells, 72 h culture, read-out: Anti cell proliferative activity EC50, H82
[7] = Colo205 cells, 72 h culture, read-out: Anti cell proliferative activity EC50, Colo205
[8] = HT-29 cells, 72 h culture, read-out: Anti cell proliferative activity EC50, HT-29
[9] = N87 cells, 72 h culture, read-out: Anti cell proliferative activity EC50, N87

Row | SMILES | EC50 [1, 5] [nM] | EC50 [2, 6] [nM] | EC50 [3, 7] [nM] | EC50 (Human Colon Cancer HT-29; [8]) [nM] | EC50 [4, 9] [nM] | EC50 ([1]; 72 h) [nM] | EC50 ([2]; 72 h) [nM] | EC50 ([3]; 72 h) [nM] | EC50 (Human Colon Cancer HT-29; 72 h) [nM] | EC50 ([4]; 72 h) [nM] | also measured
1 | CNC(=O)c1ccccc1Nc1nc(Nc2ccc(N3CCN(C(=O)N[C@H]4CC[C@@H](N(CCC#Cc5ccc6c(c5)CN(C5CCC(=O)NC5=O)C6=O)C(=O)OCCSSC[C@H](N)C(=O)N[C@H](Cc5ccccc5)C(=O)N[C@H]5CSSC[C@@H](C(=O)N[C@H](CO)[C@@H](C)O)NC(=O)[C@H]([C@@H](C)O)NC(=O)[C@H](CCCCN)NC(=O)[C@@H](Cc6c[nH]c7ccccc67)NC(=O)[C@H](Cc6ccccc6)NC5=O)CC4)CC3)cc2)ncc1Cl (stereo partly shown) [UB-181299] | > 1000 | 246 | 302 | > 1000 | 679 | – | – | – | – | – | –
2 | NC(=O)c1ccccc1Nc1nc(Nc2ccc(N3CCN([C@H]4CC[C@@H](NCCC#Cc5ccc6c(c5)CN(C5CCC(=O)NC5=O)C6=O)CC4)CC3)cc2)ncc1Cl (stereo partly shown) [UB-181315] | – | – | – | – | – | – | – | – | – | – | EC50 ([1]; Homo sapiens, NCI-H69, H69 cells, 72 h culture, read-out: Anti cell proliferative activity EC50, H69): > 1000 nM; EC50 ([2]; Homo sapiens, NCI-H82, H82 cells, 72 h culture, read-out: Anti cell proliferative activity EC50, H82): 314 nM; EC50 ([3]; Homo sapiens, COLO 205, Colo205 cells, 72 h culture, read-out: Anti cell proliferative activity EC50, Colo205): 723 nM; EC50 (Human Colon Cancer HT-29; Homo sapiens, HT-29 cells, 72 h culture, read-out: Anti cell proliferative activity EC50, HT-29): > 1000 nM; EC50 ([4]; Homo sapiens, N87 cells, 72 h culture, read-out: Anti cell proliferative activity EC50, N87): > 1000 nM
3 | CNC(=O)c1ccccc1Nc1nc(Nc2ccc(N3CCN(C(=O)N[C@H]4CC[C@@H](N(CCC#Cc5ccc6c(c5)CN(C5CCC(=O)NC5=O)C6=O)C(=O)OCCSSC[C@H](NC(=O)[C@H](CC(=O)O)NC(=O)[C@H](CC(=O)O)NC(=O)[C@H](CCCNC(=N)N)NC(=O)[C@H](CC(=O)O)NC(=O)CCC(NC(=O)c5ccc(NCc6cnc7nc(N)[nH]c(=O)c7n6)cc5)C(=O)O)C(=O)O)CC4)CC3)cc2)ncc1Cl (stereo partly shown) [UB-181321] | – | – | – | – | – | > 1000 | 171 | 239 | > 1000 | > 1000 | –
4 | N=C(N)NCCC[C@H](NC(=O)[C@H](CC(=O)O)NC(=O)CC[C@H](NC(=O)c1ccc(NCc2cnc3nc(N)[nH]c(=O)c3n2)cc1)C(=O)O)C(=O)N[C@@H](CC(=O)O)C(=O)N[C@@H](CC(=O)O)C(=O)N[C@@H](CSSCCOC(=O)N(CCC#Cc1ccc2c(c1)CN(C1CCC(=O)NC1=O)C2=O)C1CCC(NC(=O)N2CCN(c3ccc(Nc4ncc(Cl)c(Nc5ccccc5C(N)=O)n4)cc3)CC2)CC1)C(=O)O (stereo partly shown) [UB-181327] | > 1000 | 283 | 243 | 855 | > 1000 | – | – | – | – | – | –
5 | CC[C@@H]1C(=O)N(C)c2cnc(Nc3ccc(-c4cn([C@H]5CC[C@@H](N(CCOCCC#Cc6cccc7c6CN(C6CCC(=O)NC6=O)C7=O)C(=O)OCc6ccc(NC(=O)[C@H](CC(N)=O)NC(=O)[C@H](C)NC(=O)[C@H](C)NC(=O)CCCCCN7C(=O)CC(SC[C@H](N)C(=O)N[C@@H](Cc8ccccc8)C(=O)N[C@H]8CSSC[C@@H](C(=O)N[C@H](CO)[C@@H](C)O)NC(=O)[C@H]([C@@H](C)O)NC(=O)[C@H](CCCCN)NC(=O)[C@@H](Cc9c[nH]c%10ccccc9%10)NC(=O)[C@H](Cc9ccccc9)NC8=O)C7=O)cc6)CC5)nn4)cc3OC)nc2N1C1CCCC1 (stereo partly shown) [UB-181334] | – | – | – | – | – | 955 | 989 | 286 | > 1000 | 927 | –
6 | CC[C@@H]1C(=O)N(C)c2cnc(Nc3ccc(-c4cn([C@H]5CC[C@@H](N(CCOCCC#Cc6cccc7c6CN(C6CCC(=O)NC6=O)C7=O)C(=O)OCCSSC[C@H](NC(=O)[C@H](CC(=O)O)NC(=O)[C@H](CC(=O)O)NC(=O)[C@H](CCCNC(=N)N)NC(=O)[C@H](CC(=O)O)NC(=O)CC[C@H](NC(=O)c6ccc(NCc7cnc8nc(N)[nH]c(=O)c8n7)cc6)C(=O)O)C(=O)O)CC5)nn4)cc3OC)nc2N1C1CCCC1 (stereo partly shown) [UB-181336] | – | – | – | – | – | > 1000 | > 1000 | > 1000 | > 1000 | > 1000 | –
7 | CC[C@@H]1C(=O)N(C)c2cnc(Nc3ccc(-c4cn([C@H]5CC[C@@H](N(CCOCCC#Cc6cccc7c6CN(C6CCC(=O)NC6=O)C7=O)C(=O)OCc6ccc(NC(=O)[C@H](CC(N)=O)NC(=O)[C@H](C)NC(=O)[C@H](C)NC(=O)CCCCCN7C(=O)CC(SC[C@H](NC(=O)[C@H](CC(=O)O)NC(=O)[C@H](CC(=O)O)NC(=O)[C@H](CCCNC(=N)N)NC(=O)[C@H](CC(=O)O)NC(=O)CCC(NC(=O)c8ccc(NCc9cnc%10nc(N)[nH]c(=O)c%10n9)cc8)C(=O)O)C(=O)O)C7=O)cc6)CC5)nn4)cc3OC)nc2N1C1CCCC1 (stereo partly shown) [UB-181337] | – | – | – | – | – | 79.3 | 183 | 33.1 | 233 | 175 | –
8 | CC[C@@H]1C(=O)N(C)c2cnc(Nc3ccc(-c4cn([C@H]5CC[C@@H](N(CCOCCC#Cc6cccc7c6CN(C6CCC(=O)NC6=O)C7=O)C(=O)OCCSSC[C@H](NC(=O)CC[C@H](NC(=O)c6ccc(NCc7cnc8nc(N)[nH]c(=O)c8n7)cc6)C(=O)O)C(=O)N[C@H](Cc6ccccc6)C(=O)N[C@H]6CSSC[C@@H](C(=O)N[C@H](CO)[C@@H](C)O)NC(=O)[C@H]([C@@H](C)O)NC(=O)[C@H](CCCCN)NC(=O)[C@@H](Cc7c[nH]c8ccccc78)NC(=O)[C@H](Cc7ccccc7)NC6=O)CC5)nn4)cc3OC)nc2N1C1CCCC1 (stereo partly shown) [UB-181339] | > 1000 | 236 | 249 | > 1000 | 456 | – | – | – | – | – | –
9 | C[C@@H](O)[C@@H]1NC(=O)[C@H](CCCCN)NC(=O)[C@@H](Cc2c[nH]c3ccccc23)NC(=O)[C@H](Cc2ccccc2)NC(=O)[C@@H](NC(=O)[C@@H](Cc2ccccc2)NC(=O)[C@@H](N)CSC2CC(=O)N(CCC(=O)N[C@@H](CC(=O)O)C(=O)N[C@@H](CCCNC(=N)N)C(=O)N[C@@H](CC(=O)O)C(=O)N[C@@H](CC(=O)O)C(=O)N[C@@H](CSSCCOC(=O)N(CCC#Cc3ccc4c(c3)CN(C3CCC(=O)NC3=O)C4=O)C3CCC(NC(=O)N4CCN(c5ccc(Nc6ncc(Cl)c(Nc7ccccc7C(N)=O)n6)cc5)CC4)CC3)C(=O)O)C2=O)CSSC[C@@H](C(=O)N[C@H](CO)[C@@H](C)O)NC1=O (stereo partly shown) [UB-181342] (I: H-C[dF]CF[dW]KTC[Thr(ol)] / II: DRDDC(X1)-OH; linker I:1-II:N via Succinimide(1-C2H4CO,3-yl); disulfide I:3-I:8) | – | – | – | – | – | > 1000 | 746 | 847 | > 1000 | > 1000 | –
10 | C[C@H](NC(=O)[C@H](CC(=O)O)NC(=O)[C@H](CC(=O)O)NC(=O)[C@H](CCCNC(=N)N)NC(=O)[C@H](CC(=O)O)NC(=O)CCN1C(=O)CC(SC[C@H](N)C(=O)N[C@@H](Cc2ccccc2)C(=O)N[C@H]2CSSC[C@@H](C(=O)N[C@H](CO)[C@@H](C)O)NC(=O)[C@H]([C@@H](C)O)NC(=O)[C@H](CCCCN)NC(=O)[C@@H](Cc3c[nH]c4ccccc34)NC(=O)[C@H](Cc3ccccc3)NC2=O)C1=O)C(=O)N[C@@H](CC(N)=O)C(=O)Nc1ccc(COC(=O)N(CCC#Cc2ccc3c(c2)CN(C2CCC(=O)NC2=O)C3=O)C2CCC(NC(=O)N3CCN(c4ccc(Nc5ncc(Cl)c(Nc6ccccc6C(N)=O)n5)cc4)CC3)CC2)cc1 (stereo partly shown) [UB-181343] (I: H-CFCF[dW]KTC[Thr(ol)] / II: DRDDAN[PABC]-X2; linker I:1-II:N via Succinimide(1-C2H4CO,3-yl); disulfide I:3-I:8) | – | – | – | – | – | 738 | 103 | 285 | > 1000 | 305 | –
11 | C[C@H](NC(=O)[C@H](C)NC(=O)[C@H](CS(=O)(=O)O)NC(=O)CCN1C(=O)CC(SC[C@H](N)C(=O)N[C@H](Cc2ccccc2)C(=O)N[C@H]2CSSC[C@@H](C(=O)N[C@H](CO)[C@@H](C)O)NC(=O)[C@H]([C@@H](C)O)NC(=O)[C@H](CCCCN)NC(=O)[C@@H](Cc3c[nH]c4ccccc34)NC(=O)[C@H](Cc3ccccc3)CC2=O)C1=O)C(=O)N[C@@H](CC(N)=O)C(=O)Nc1ccc(COC(=O)N(CCC#Cc2ccc3c(c2)CN(C2CCC(=O)NC2=O)C3=O)C2CCC(NC(=O)N3CCN(c4ccc(Nc5ncc(Cl)c(Nc6ccccc6C(N)=O)n5)cc4)CC3)CC2)cc1 (stereo partly shown) [UB-181345] | > 1000 | 92.9 | 274 | > 1000 | 300 | – | – | – | – | – | –
